Assay results reported in the Deep4Chem optical property database.
Where “and” joins values, the source holds several entries; their conditions need not be identical. Identical values can stand only once.

Test: solvent given as SMILES

For `COc1c2ccccc2c(OC)c2c(C#C[Si](C(C)C)(C(C)C)C(C)C)c3cc4sccc4cc3c(C#C[Si](C(C)C)(C(C)C)C(C)C)c12`, the absorption maximum (in ClCCl) was 639 nm.
In the case of `CC1CC=C(c2ccc(-c3ccc(C#N)s3)s2)CC1` (stereo not given), the absorption maximum (in C1CCOC1) is reported as 357 nm, the absorption maximum (in CC#N) is reported as 355 nm and the absorption maximum (in CCCCCC) is reported as 356 nm. It also gave an absorption maximum (in CCO) of 358 nm, an absorption maximum (in OCCOCCO) of 366 nm and an absorption maximum (in c1ccncc1) of 363 nm.
Compound `O=C1OC(=O)c2ccc(N(c3ccccc3)c3c4ccccc4cc4ccccc34)c3cccc1c23` has an absorption maximum (in C1CCOC1) of 450 nm, an absorption maximum (in CCCCCC) of 440 nm and an absorption maximum (in ClCCl) of 462 nm. The absorption maximum (in c1ccccc1) was 450 nm.
For `COc1cn2cc(-c3ccc(C#N)cc3)[n-][n+]2c1`, the absorption maximum (in ClCCl) was 378 nm.
`COc1ccc2c3c(OC)c4ccccc4c(OC)c3n(C)c2c1` showed an absorption maximum (in C1CCCCC1) of 392 nm, an absorption maximum (in CC#N) of 393 nm and an absorption maximum (in CO) of 392 nm. For the same compound, the absorption maximum (in ClCCl) was 396 nm.
Compound `COc1ccc2c(c1)c1cc(OC)ccc1n2-c1ccc2c(c1)-c1cc(-n3c4ccc(OC)cc4c4cc(OC)ccc43)ccc1P2(=O)c1ccccc1` has an absorption maximum (in Cc1ccccc1) of 369 nm.
Compound `O=C1Nc2ccccc2/C1=C/C(=O)c1ccc(Cl)cc1` has an absorption maximum (in C1CCCCC1) of 335 nm, an absorption maximum (in C1COCCO1) of 335 nm and an absorption maximum (in CC#N) of 332 nm. For the same compound, the absorption maximum (in CC(C)(C)O) was 339 nm, the absorption maximum (in CC(C)O) was 339 nm and the absorption maximum (in CCCCCC) was 334 nm. For the same compound, the absorption maximum (in CCCCO) was 339 nm, the absorption maximum (in CCOC(C)=O) was 335 nm and the absorption maximum (in CN(C)C=O) was 337 nm. The absorption maximum (in CO) was 340 nm, the absorption maximum (in ClCCl) was 338 nm and the absorption maximum (in O) was 341 nm.
For `CC1(C)C(/C=C/C2=C(c3ccc(C(=O)O)cc3)C(=C/C=C3/N(CCCS(=O)(=O)[O-])c4ccc5ccccc5c4C3(C)C)/CCC2)=[N+](CCCS(=O)(=O)[O-])c2ccc3ccccc3c21`, the absorption maximum (in CO) was 800 nm.
Work on `Cc1cc(-c2ccc(C(C)(C)C)cc2)cc(C)[o+]1` yielded an absorption maximum (in CC#N) of 345 nm and an absorption maximum (in ClCCl) of 365 nm.
`NCCCCCCCCCCCCN1C(=O)c2ccc3c4ccc5c6c(ccc(c7ccc(c2c37)C1=O)c64)C(=O)N(c1ccc(O)cc1)C5=O` showed an absorption maximum (in CN(C)C=O) of 525 nm.
`F[B-]1(F)n2c(-c3cccs3)cc(-c3cccs3)c2N=C2C(c3cccs3)=CC(c3cccs3)=[N+]21` showed an absorption maximum (in C1CCOC1) of 740 nm, an absorption maximum (in CC#N) of 733 nm and an absorption maximum (in CS(C)=O) of 752 nm. For the same compound, the absorption maximum (in Cc1ccccc1) was 743 nm and the absorption maximum (in ClCCl) was 740 nm and 742 nm.
Work on `I[I-]I` yielded an absorption maximum (in O) of 351.77 nm.
`COc1ccc(-c2nc3ccccc3nc2/C=C/N2CCCC2)s1` gave an absorption maximum (in CC#N) of 456 nm.
`C[Si](C)(C)c1ccc(C#N)c2ccccc12` showed an absorption maximum (in C1CCCCC1) of 315 nm.
For `COc1cc(OC)c2c(c1)C(=O)c1cc(OC)cc(OC)c1-2`, the absorption maximum (in C1CCCCC1) was 489 nm, the absorption maximum (in CC#N) was 504 nm and the absorption maximum (in CCO) was 506 nm.
`CC1(C)CC(=O)C2=C(C1)Oc1ccc3ccccc3c1C2c1ccccn1` (stereo not given) showed an absorption maximum (in C1CCOC1) of 275 nm, an absorption maximum (in C1COCCO1) of 274 nm and an absorption maximum (in CC#N) of 275 nm. The absorption maximum (in CCCCCCC) was 274 nm, the absorption maximum (in CCO) was 274 nm and the absorption maximum (in CO) was 275 nm. It also gave an absorption maximum (in O) of 264 nm.
With `COC(=O)/C=C/C1=CC2=C(c3c(C)cc(C)cc3C)c3cc(/C=C/C(=O)OC)cn3[B-](F)(F)[N+]2=C1` the absorption maximum (in ClCCl) was 577 nm.
In the case of `CC(=O)OCOC(=O)CN(CC(=O)OCOC(C)=O)c1ccccc1OCCOc1cc(NC(=O)c2ccc3c(c2)C(=O)OC32c3cc(Cl)c(OC(C)=O)cc3Oc3cc(OC(C)=O)c(Cl)cc32)ccc1N(CC(=O)OCOC(C)=O)CC(=O)OCOC(C)=O`, the absorption maximum (in O) is reported as 506 nm.
For `CCn1c(-c2ccc(-c3ccc4c(c3)C3(c5ccccc5-c5ccccc53)c3ccccc3-4)cc2)c(-c2ccc3ccccc3c2)c(-c2ccc3ccccc3c2)c1-c1ccc(-c2ccc3c(c2)C2(c4ccccc4-c4ccccc42)c2ccccc2-3)cc1`, the absorption maximum (in CCOC(C)=O) was 326 nm.
`c1ccc(-c2nc(-c3ccccc3)nc(-c3ccc(-n4c5ccccc5c5ccc6c(c7ccccc7n6-c6ccccc6)c54)cc3)n2)cc1` showed an absorption maximum (in Cc1ccccc1) of 360 nm.
